The values that follow come from patent US10149809B2, “Skin aging inhibitor and concentrate of resveratrol 3-O-α-glucoside” (priority 2014, dated 2018).

In brackets after ≈: the same amount, converted by molar mass.

One data set in a line: Solubility in water. Type of data set: physicochemical. As to conditions: water. The procedure: (§1) Approximately 5 mg each of resveratrol 3-O-α-glucoside, resveratrol (Tokyo Chemical Industry Co., Ltd.), and resveratrol 3-O-β-glucoside (Tokyo Chemical Industry Co., Ltd.) was weighed, approximately 1 mL of water was added thereto, and the mixture was soaked in a water bath at 25° C. under light-tight conditions, and incubated for 20 hours with occasional stirring. After 20 hours, each of the samples was filtered through a 0.45 μm centrifugal filter, and then the concentration of each of the components in the filtrate was analyzed using HPLC under the same conditions as those described in Production Example 1 above. The dissolved concentration (w/v %) in water at 25° C. was thus determined.

Data set [1] in a line: Storage stability in 30 vol % aqueous ethanol (coloration, residual content). The class given is physicochemical. As to conditions: 2 mM in 30 vol % aqueous ethanol, 40° C., light-tight, 6 months; for Residual Content (%): HPLC. The procedure:
Each of resveratrol 3-O-α-glucoside (produced in Production Example 1), resveratrol (Tokyo Chemical Industry Co., Ltd.), and resveratrol 4′-O-α-glucoside (produced in Production Example 1) was dissolved in a 30 vol % aqueous solution of ethanol to a concentration of 2 mM, and the solution was stored at 40° C. under light-tight conditions. The coloration of the solution after being stored for 6 months was visually observed. Further, absorbances at 430 nm of the solution before and after the storage were measured, and the residual amount of each of the components in the solution was analyzed using HPLC. HPLC was performed under the same conditions as those described in Production Example 1.

Data set [2] relates to skin model (EPI-200X; MatTek). The class given is in vitro ADME, human. As to conditions: human, 20 h, 0.2 wt %. The procedure: Using a three-dimensional human skin model, permeabilities of resveratrol 3-O-α-glucoside and resveratrol into the skin model when administered via the skin surface were compared.
Resveratrol 3-O-α-glucoside or resveratrol (Tokyo Chemical Industry Co., Ltd.) was prepared into a 0.2 wt % solution or suspension with the addition of PBS, and the resulting solution was used as a test substance. The skin model (EPI-200X; MatTek) was loaded into a special fixture (EPI-100-FIX; MatTek), and placed in the 6-well plate of the receiver. One-hundred microliters of the test substance were added to the horny layer side, and 5 mL of PBS was added to the receiver side. After being allowed to stand at 37° C. for 20 hours, the skin model was collected, and the surface of the skin model was washed well with PBS. The skin model after being washed was homogenized in PBS. After the homogenate was centrifuged, resveratrols in the supernatant were quantified using HPLC under the same conditions as described in Production Example 1 above, and the amount of resveratrols was converted into the equivalent of agly cones.

For data set [3], the system named is skin model (MEL-312B; MatTek). Put plainly: Melanogenesis suppressing effect in skin model (amount of melanin, visual observation). Particulars: 0.2 wt % in PBS, 50 μL, 16 days; PBS control group = 100%. The class given is cell-based. As for the experimental part:
Resveratrol 3-O-α-glucoside, resveratrol (Tokyo Chemical Industry Co., Ltd.), or resveratrol 3-O-β-glucoside (Tokyo Chemical Industry Co., Ltd.) was prepared into a 0.2 wt % solution or suspension with the addition of PBS, and the resulting solution or suspension was used as a test substance. A skin model (MEL-312B; MatTek) was used, and 50 μL of the test substance was added to the horny layer side of the skin model and cultured in a special medium (EPI-100NMM-113; MatTek) at 37° C. for 16 days. On days 2, 4, 7, 9, 11, and 14, the medium and the test substance were replaced with fresh ones. As a control group, the same operation was performed using PBS instead of the test substance.
After 16 days of culture, the skin model was visually observed, and the amount of melanin in the skin model was evaluated. The amount of melanin was measured using the following method. Initially, the collected skin model was subjected to enzymatic degradation by proteinase-K, and was subsequently homogenated in PBS containing 1% triton X-100. Melanin was then extracted by washing with 10% TCA and ethanol. Next, the extracted melanin was dissolved in 0.5 mL of 1N-NaOH containing 10% DMSO at 80° C. for 2 hours, and the amount of melanin was quantified by measuring absorbance at 470 nm.
Resveratrol 3-O-α-glucoside was prepared into a 0.2 wt % solution, a 0.1 wt % solution, or a 0.01 wt % solution with the addition of PBS. The resulting solution was used as a test substance, and the melanogenesis suppressing effect was evaluated using the same method as that of Example 1 above. […]

A short description of data set [4]: Solubility in solvent containing dipropylene glycol. Type of data set: physicochemical. As to conditions: 25 °C, water, thermodynamic from solid. The procedure: as §1, with “Approximately 40” for “Approximately 5”, “approximately 70 mg” for “approximately 1 mL”, “of a solvent (whose composition is shown in Table 18) containing ethanol (Wako Pure Chemical Industries, Ltd.)” for “of water”, “for 15” for “for 20”, “After 15” for “After 20”, “%)” for “%) in water”
The solubility of resveratrol 3-O-α-glucoside was evaluated under the same conditions as those described in Example 18 above, except that a solvent (whose composition is shown in Table 22) containing dipropylene glycol (Asahi Glass Co., Ltd.) was used.

As to `OC[C@H]1O[C@H](Oc2ccc(C=Cc3cc(O)cc(O)c3)cc2)[C@H](O)[C@@H](O)[C@@H]1O` [Resveratrol 4′-O-α-Glucoside, resveratrol 4′-O-α-glucoside], the “Dissolved Concentration (μg/mL) in Water” value in “Solubility in water” (25° C., 20 hours) was 150 µg/mL. Moreover, in data set [1], the “Coloration: Difference between Absorbances at 430 nm (Δ A 430) before and after Storage” value is 0.21; the “Coloration: Visual Observation” value is listed as “slightly colored”; the “Residual Content (%)” value amounted to 86%.
Broadly, the solubility (thermodynamic) is solubility found after equilibrating the solid with the medium. For the compound `Oc1ccc(C=Cc2cc(O)cc(O)c2)cc1` [Resveratrol, resveratrol], the solubility (thermodynamic) at 20 h in the data set “Solubility in water” (25 °C, thermodynamic from solid) was 30 µg/mL (≈ 131 µM). In data set [1], the “Coloration: Difference between Absorbances at 430 nm (Δ A 430) before and after Storage” value came out at 1.36; the “Coloration: Visual Observation” value is on record as “strongly”; the “Residual Content (%)” value is on record as 60%. Moreover, the “Concentration in the Skin Model (Value Converted into the Equivalent of Aglycones, μg/cm^2)” value in data set [2] came to 7.5 μg/cm^2. In addition, the “Relative Amount of Melanin” value in data set [3] is reported as 63%. Besides, in data set [4], the solubility (thermodynamic) at 15 h was 30 µg/mL (≈ 131 µM).
